# ChEMBL document CHEMBL6078677, “Discovery and optimization of tetrahydroacridine derivatives as a novel class of antibiotics against multidrug-resistant Gram-positive pathogens by targeting type I signal peptidase and disrupting bacterial membrane” (Eur J Med Chem, 2025)
# Active and inactive are the calls of the source. The rule behind the calls is not given here.
# Columns and labels:
# [1] = test system: Cell membrane; assay: Disruption of cell membrane integrity in Staphylococcus aureus ATCC 29213 assessed as appearance of shriveled surface at 0.5 to 2 times of MIC by scanning electron microscopic analysis; format: subcellular
# [2] = test system: Enterococcus faecalis; assay: Antimicrobial activity against Enterococcus faecalis JH2-2 assessed as inhibition of visible growth of bacteria incubated for 20 hrs by broth microdilution method; format: functional
# [3] = Cytotoxicity against human Caco-2 cells assessed as cell viability at 2 times of MIC incubated for 48 hrs by CCK8 assay (reference value: 99.54 %); format: toxicity, cell-based; conditions: read-out: Activity
# [4] = test system: Staphylococcus aureus; assay: (§1) Antibacterial activity against methicillin-resistant Staphylococcus aureus YZSA-24 infected in cyclophosphamide-induced neutrophil depleted female ICR mouse model of skin infection assessed as log reduction in bacterial load at 2.5 %, TOP preadministered with cyclophosphamide for 5 days followed by bacterial administration and measured after 25 hrs of compound administration relative to vehicle group; format: functional
# [5] = test system: Streptococcus suis; assay: Antimicrobial activity against Streptococcus suis P1/7 assessed as inhibition of visible growth of bacteria incubated for 20 hrs by broth microdilution method; format: functional
# [6] = test system: Staphylococcus aureus; assay: Antimicrobial activity against Staphylococcus aureus YZSA-24 harboring erythromycin resistance rRNA methylase C and methicillin resistance gene resistance locus assessed as inhibition of visible growth of bacteria incubated for 20 hrs by broth microdilution method; format: functional
# [7] = test system: Staphylococcus aureus; assay: Disruption of preformed biofilm in Staphylococcus aureus ATCC 29213 at 1 microg/ml measured after 72 hrs by crystal violet staining based analysis relative to control; format: functional; conditions: dose 1 µg/ml
# [8] = Metabolic stability in mouse liver microsomes assessed as hepatic extraction ratio at 100 uM preincubated for 5 mins followed by NADPH addition and measured upto 60 mins by LC-MS/MS analysis; format: ADME, Microsome; conditions: time < 65 min, read-out: ERH
# [9] = Cytotoxicity against human Caco-2 cells assessed as cell viability at 8 times of MIC incubated for 48 hrs by CCK8 assay (reference value: 99.54 %); format: toxicity, cell-based; conditions: read-out: Activity
# [10] = test system: Escherichia coli; assay: Antimicrobial activity against Escherichia coli ATCC 25922 assessed as inhibition of visible growth of bacteria incubated for 20 hrs by broth microdilution method; format: functional
# [11] = test system: Staphylococcus aureus; assay: microbe, parasite or virus in culture; format: functional; conditions: M92-1, time 20 hrs
# Description: Antimicrobial activity against Staphylococcus aureus M92-1 harboring erythromycin resistance rRNA methylase B, tetracycline efflux protein L and oxazolidinone-phenicol transferable resistance gene assessed as inhibition of visible growth of bacteria incubated for 20 hrs by broth microdilution method
# [12] = Metabolic stability in human liver microsomes assessed as hepatic extraction ratio at 100 uM preincubated for 5 mins followed by NADPH addition and measured upto 60 mins by LC-MS/MS analysis; format: ADME, Microsome; conditions: time < 65 min, read-out: ERH
# [13] = test system: Pseudomonas aeruginosa; assay: Antimicrobial activity against Pseudomonas aeruginosa PA14 assessed as inhibition of visible growth of bacteria incubated for 20 hrs by broth microdilution method; format: functional
# [14] = test system: Acinetobacter baumannii; assay: Antimicrobial activity against Acinetobacter baumannii 7979 assessed as inhibition of visible growth of bacteria incubated for 20 hrs by broth microdilution method; format: functional
# [15] = Hemolytic activity in Kunming mouse erythrocytes measured after 1 hrs by absorbance based assay; format: toxicity, cell-based, Erythrocyte
# [16] = test system: Cell membrane; assay: Disruption of cell membrane integrity in Staphylococcus aureus ATCC 29213 assessed as increase in red fluorescence intensity incubated for 4 hrs by SYTO-9/PI staining based LIVE/DEAD Baclight bacterial viability assay; format: subcellular
# [17] = Hemolytic activity in Kunming mouse erythrocytes assessed as hemolysis at 8 times of MIC measured after 1 hrs by absorbance based assay relative to control; format: toxicity, cell-based, Erythrocyte; conditions: read-out: Activity
# [18] = test system: Staphylococcus aureus; assay: as §1, with “1” for “2.5”; format: functional
# [19] = test system: Staphylococcus aureus; assay: Antibiofilm activity in Staphylococcus aureus ATCC 29213 assessed as reduction in biofilm formation at 0.5 to 2 times of MIC measured after 72 hrs by SEM analysis; format: functional, organism-based
# [20] = Cytotoxicity against human Caco-2 cells assessed as reduction in cell viability incubated for 48 hrs by CCK8 assay; format: toxicity, cell-based
# [21] = test system: Staphylococcus aureus; assay: microbe, parasite or virus in culture; format: functional; conditions: M147-2, time 20 hrs
# Description: Antimicrobial activity against Staphylococcus aureus M147-2 harboring erythromycin resistance rRNA methylase B, tetracycline efflux protein L and chloramphenicol-florfenicol resistance methylase assessed as inhibition of visible growth of bacteria incubated for 20 hrs by broth microdilution method
# [22] = Cytotoxicity against human Caco-2 cells assessed as cell viability at 16 times of MIC incubated for 48 hrs by CCK8 assay (reference value: 99.54 %); format: toxicity, cell-based; conditions: read-out: Activity
# [23] = test system: Pseudomonas aeruginosa; assay: Antimicrobial activity against Pseudomonas aeruginosa PA01 assessed as inhibition of visible growth of bacteria incubated for 20 hrs by broth microdilution method; format: functional
# [24] = test system: Staphylococcus aureus; assay: Antibiofilm activity against Staphylococcus aureus ATCC 29213 assessed as eradication of preformed biofilm by measuring residual biomass at 2 microg/ml measured after 72 hrs by crystal violet staining based analysis relative to control; format: functional; conditions: dose 2 µg/ml
# [25] = Cytotoxicity against human HEp-2 cells assessed as cell viability at 2 times of MIC incubated for 48 hrs by CCK8 assay (reference value: 100 %); format: toxicity, cell-based; conditions: read-out: Activity
# [26] = Metabolic stability in mouse liver microsomes assessed as half-life at 100 uM preincubated for 5 mins followed by NADPH addition and measured upto 60 mins by LC-MS/MS analysis; format: ADME, Microsome; conditions: time < 65 min
# [27] = Acute toxicity in ICR mouse model assessed as change in spleen pathology at 25 to 100 mg/kg, IG administered for 7 days by H and E staining based analysis; format: organism-based; conditions: in vivo, po, 168 h, dose 25-100 mg/kg, time 7 day
# [28] = test system: Staphylococcus aureus; assay: Bactericidal activity against Staphylococcus aureus ATCC 29213 assessed as bacterial killing at 8 times of MIC measured within 12 hrs by time-kill kinetics assay; format: functional, organism-based
# [29] = test system: Enterococcus faecium; assay: Antimicrobial activity against Enterococcus faecium MC38 harboring erythromycin resistance rRNA methylase B and oxazolidinone-phenicol transferable resistance gene assessed as inhibition of visible growth of bacteria incubated for 20 hrs by broth microdilution method; format: functional
# [30] = Metabolic stability in rat liver microsomes assessed as intrinsic clearance at 100 uM preincubated for 5 mins followed by NADPH addition and measured upto 60 mins by LC-MS/MS analysis; format: ADME, Microsome; conditions: time < 65 min, read-out: CLH
# [31] = test system: Staphylococcus aureus; assay: as §1, with “1” for “2.5”, “ampicillin” for “vehicle”; format: functional
# [32] = test system: Staphylococcus aureus; assay: Antimicrobial activity against Staphylococcus aureus ATCC 29213 assessed as inhibition of visible growth of bacteria incubated for 20 hrs by broth microdilution method; format: functional
# [33] = Cytotoxicity against human HEp-2 cells assessed as reduction in cell viability incubated for 48 hrs by CCK8 assay; format: toxicity, cell-based
# [34] = Hemolytic activity in Kunming mouse erythrocytes assessed as hemolysis at 2 times of MIC measured after 1 hrs by absorbance based assay relative to control; format: toxicity, cell-based, Erythrocyte; conditions: read-out: Activity
# [35] = Acute toxicity in ICR mouse model assessed as change in heart pathology at 25 to 100 mg/kg, IG administered for 7 days by H and E staining based analysis; format: organism-based; conditions: in vivo, po, 168 h, dose 25-100 mg/kg, time 7 day
# [36] = Metabolic stability in rat liver microsomes assessed as hepatic extraction ratio at 100 uM preincubated for 5 mins followed by NADPH addition and measured upto 60 mins by LC-MS/MS analysis; format: ADME, Microsome; conditions: time < 65 min, read-out: ERH
# [37] = Acute toxicity in ICR mouse model assessed as effect on animal survival at 25 to 100 mg/kg, IG administered for 7 days; format: organism-based; conditions: in vivo, po, 168 h, dose 25-100 mg/kg, time 7 day
# [38] = target: Signal peptidase I (Escherichia coli K-12, UniProt P00803); assay: Binding affinity to recombinant 6His-tagged Escherichia coli LepB (77 to 324 residues) extracted from Escherichia coli BL21 (DE3) cells assessed as dissociation constant by MST analysis
# Signal peptidase I, sequence (P00803 whole entry, the tested form may be a part): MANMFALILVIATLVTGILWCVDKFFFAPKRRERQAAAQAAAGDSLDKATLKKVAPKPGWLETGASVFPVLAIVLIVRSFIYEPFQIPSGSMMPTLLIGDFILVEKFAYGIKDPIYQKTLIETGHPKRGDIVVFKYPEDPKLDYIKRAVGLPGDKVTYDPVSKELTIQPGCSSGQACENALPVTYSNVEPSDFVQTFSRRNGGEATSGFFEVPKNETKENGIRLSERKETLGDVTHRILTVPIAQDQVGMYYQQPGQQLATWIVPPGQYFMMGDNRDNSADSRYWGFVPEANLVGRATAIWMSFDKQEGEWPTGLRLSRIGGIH
smiles,measurement,setting,value
CC1C/C(=C\c2ccc(-c3ccc(Cl)c(C(F)(F)F)c3)s2)c2nc3ccccc3c(C(=O)O)c2C1 (racemic),Activity,[1],Active
same,MIC,[2],1 µg/mL
same,"viability at 48 h, 2 times of MIC",[3],96.6%
same,Activity,[4],2.36 log10CFU/ml
same,MIC,[5],16 µg/mL
same,MIC,[6],1 µg/mL
same,Activity,[7],~50%
same,"hepatic extraction ratio at 1 h, 100 µM",[8],< 0.26
same,"viability at 48 h, 8 times of MIC",[9],72.8%
same,MIC,[10],> 128 µg/mL
same,MIC,[11],1 µg/mL
same,"hepatic extraction ratio at 1 h, 100 µM",[12],< 0.27
same,MIC,[13],> 128 µg/mL
same,MIC,[14],> 128 µg/mL
same,HC50 at 1 h,[15],13.3 µg/mL
same,Activity,[16],Dose-dependent-effect
same,"hemolysis at 1 h, 8 times of MIC",[17],5.4%
same,Activity,[18],1.27 log10CFU/ml
same,Activity,[19],Active; Some Sections Appeared To Be Damaged And Broken
same,CC50 at 48 h,[20],21.9 µg/mL
same,MIC,[21],1 µg/mL
same,"viability at 48 h, 16 times of MIC",[22],61.7%
same,MIC,[23],> 128 µg/mL
same,Activity,[24],31.4%
same,"viability at 48 h, 2 times of MIC",[25],93.7%
same,half-life at 100 µM,[26],> 3.08 h
same,Activity,[27],Non-toxic
same,Activity,[28],Active
same,MIC,[29],2 µg/mL
same,microsomal CLint at 100 µM,[30],< 7.5 µL/min/mg
same,Activity,[31],1.21 log10CFU/ml
same,MIC,[32],1 µg/mL
same,CC50 at 48 h,[33],14.7 µg/mL
same,"hemolysis at 1 h, 2 times of MIC",[34],0%
same,Activity,[35],Non-toxic
same,"hepatic extraction ratio at 1 h, 100 µM",[36],< 0.21
same,Activity,[37],Non-toxic
same,Kd,[38],13.6 µM
